From paper PMC11372076, “A dual inhibitor of PIP5K1C and PIKfyve prevents SARS-CoV-2 entry into cells” (Experimental & Molecular Medicine, 2024)

Tests used:
PIKFYVE [1] = target: T1, PIKFYVE (Homo sapiens, UniProt Q9Y2I7); assay: SelectScreen Kinase Profiling Service (PIPK profiling); type: biochemical; details: [ATP] 100 μM; 1 μM (concentration stated for UNI418 only)
Source text: UNI418 has a core structure consisting of 4-quinazolinamine (Fig. 1a, green), which is often found in kinase inhibitors. […] The phosphoinositide (PI) system is a crucial regulatory mechanism in membrane trafficking and is tightly regulated through phosphorylation cascades by multiple phosphatidylinositol phosphate kinases (PIPKs)[30]. We hypothesized that UNI418 may inhibit PIPK(s) and performed PIPK profiling analysis. […] To test whether UNI418 interacts with PIP5K1C and PIKfyve, we performed a CETSA, which determines the characteristics of protein stabilization upon ligand binding to the target protein[31]. UNI418- or DMSO-treated cell lysates were incubated at different temperatures, and the presence of the target protein in the soluble fraction was analyzed by Western blotting (Fig. 1c).
Fig. 1 UNI418 specifically targets PIP5K1 and PIKfyve. a Chemical structure of UNI418. The 4-quinazolinamine core is highlighted in green. b Table of the kinase profiling analysis. Inhibition of several kinases was determined at a 1 μM concentration of UNI418 and analyzed by the SelectScreen Kinase Profiling Service (Thermo Fisher Scientific). c Cellular thermal shift assay. Ectopically expressed GFP-PIP5K1C and GFP-PIKfyve were heated to the indicated temperatures with/without UNI418, and the presence of protein in the soluble fraction was analyzed by Western blot analysis. TEXT PRINTED IN THE PICTURE: (b) UNI418: % Inhibition (mean): 11 ([ATP] Tested (μM): 10; Kinase Tested: PI4K2A (PI4K2 alpha)); % Inhibition (mean): 4 ([ATP] Tested (μM): 10; Kinase Tested: PI4K2B (PI4K2 beta)); % Inhibition (mean): -6 ([ATP] Tested (μM): 10; Kinase Tested: PI4KA (PI4K alpha)); % Inhibition (mean): 48 ([ATP] Tested (μM): Km app; Kinase Tested: PI4KB (PI4K beta)); % Inhibition (mean): 20 ([ATP] Tested (μM): 10; Kinase Tested: PIK3C2B (PI3K-C2 beta)); % Inhibition (mean): 22 ([ATP] Tested (μM): 10; Kinase Tested: PIK3C2G (PI3K-C2 gamma)); % Inhibition (mean): 4 ([ATP] Tested (μM): 100; Kinase Tested: PIK3C3 (hVPS34)); % Inhibition (mean): 8 ([ATP] Tested (μM): 10; Kinase Tested: PIK3CA/PIK3R3 (p110 alpha/p55 gamma)); % Inhibition (mean): 7 ([ATP] Tested (μM): 10; Kinase Tested: PIK3CB/PIK3R2 (p110 beta/p85 beta)); % Inhibition (mean): 9 ([ATP] Tested (μM): 10; Kinase Tested: PIP4K2A); % Inhibition (mean): 67 ([ATP] Tested (μM): 10; Kinase Tested: PIP5K1A); % Inhibition (mean): 93 ([ATP] Tested (μM): 10; Kinase Tested: PIP5K1B); % Inhibition (mean): 93 ([ATP] Tested (μM): 10; Kinase Tested: PIP5K1C); % Inhibition (mean): 100 ([ATP] Tested (μM): 100; Kinase Tested: PIKFYVE) | (b) Apilimod: % Inhibition (mean): 100 ([ATP] Tested (μM): 100; Kinase Tested: PIKFYVE) […]

VSV-G-pseudotyped virus = type: cell-based
[2] = test system: HEK293T cells stably expressing mCherry-GFP-LC3; assay: mCherry-GFP-LC3 tandem fluorescent protein quenching assay; type: cell-based; details: 0.5 μM, within 6 h
Procedure: HEK293T cells at a density of 1.6 × 10^4 cells per well in 96-well plates (Nunc) were stained with Hoechst (Cayman Chemical Company, 33342) for 10 min. The cells were washed with PBS two times and incubated with prewarmed media supplemented with 10% FBS. Cells were treated with UNI418 in prewarmed media. Images were acquired in a time-dependent manner and quantified with an ImageXpress high-content screening system (Molecular Devices, San Jose, CA, USA).
Fig. 3 UNI418 negatively affects autophagosome-lysosome fusion and endosome acidification. a Live-cell imaging of HEK293T cells stably expressing mCherry-GFP-LC3 treated with 0.5 μM UNI418 at the indicated time points; the images within the white rectangular boxes are magnified on the right side. Scale bar, 30 µm. The number (b) and area (c) of GFP-positive dots per cell were quantified by ImageXpress. d Immunofluorescence images illustrating the inhibition of endolysosomal acidification by UNI418. Vero cells were treated with the mock control or 1 µM UNC3230, apilimod or UNI418 for 1 h at 37 °C. […] The cells were analyzed by confocal microscopy using two emission wavelengths at 493–560 (green) and 590–720 nm (red) after excitation at 488 nm. […] The green-to-red fluorescence intensity ratio (e) and the area of fluorescent spots (f) were quantified. b, c, e, f The data are presented as the means ± SEMs, with a minimum of 200 spots. […]

PIKFYVE [3] = target: T1, PIKFYVE; assay: Eurofins kinase assay service (Kd); type: binding
Procedure: Supplementary Fig. 2 UNI418 inhibits PIP5K1B/C and PIKfyve. a Inhibition graph of PIP5K1 kinases at the 10 point titration with UNI418. IC 50 value of PIP5K1 kinases was analyzed by Thermo Fisher Scientific’s SelectScreen kinase profiling service. b Kd (nM) values of PIP5K1C and PIKfyve inhibition were determined using the Eurofins kinase assay service.
(1 picture or pasted object on this page, not shown here)

T1 sequence (Q9Y2I7 whole entry): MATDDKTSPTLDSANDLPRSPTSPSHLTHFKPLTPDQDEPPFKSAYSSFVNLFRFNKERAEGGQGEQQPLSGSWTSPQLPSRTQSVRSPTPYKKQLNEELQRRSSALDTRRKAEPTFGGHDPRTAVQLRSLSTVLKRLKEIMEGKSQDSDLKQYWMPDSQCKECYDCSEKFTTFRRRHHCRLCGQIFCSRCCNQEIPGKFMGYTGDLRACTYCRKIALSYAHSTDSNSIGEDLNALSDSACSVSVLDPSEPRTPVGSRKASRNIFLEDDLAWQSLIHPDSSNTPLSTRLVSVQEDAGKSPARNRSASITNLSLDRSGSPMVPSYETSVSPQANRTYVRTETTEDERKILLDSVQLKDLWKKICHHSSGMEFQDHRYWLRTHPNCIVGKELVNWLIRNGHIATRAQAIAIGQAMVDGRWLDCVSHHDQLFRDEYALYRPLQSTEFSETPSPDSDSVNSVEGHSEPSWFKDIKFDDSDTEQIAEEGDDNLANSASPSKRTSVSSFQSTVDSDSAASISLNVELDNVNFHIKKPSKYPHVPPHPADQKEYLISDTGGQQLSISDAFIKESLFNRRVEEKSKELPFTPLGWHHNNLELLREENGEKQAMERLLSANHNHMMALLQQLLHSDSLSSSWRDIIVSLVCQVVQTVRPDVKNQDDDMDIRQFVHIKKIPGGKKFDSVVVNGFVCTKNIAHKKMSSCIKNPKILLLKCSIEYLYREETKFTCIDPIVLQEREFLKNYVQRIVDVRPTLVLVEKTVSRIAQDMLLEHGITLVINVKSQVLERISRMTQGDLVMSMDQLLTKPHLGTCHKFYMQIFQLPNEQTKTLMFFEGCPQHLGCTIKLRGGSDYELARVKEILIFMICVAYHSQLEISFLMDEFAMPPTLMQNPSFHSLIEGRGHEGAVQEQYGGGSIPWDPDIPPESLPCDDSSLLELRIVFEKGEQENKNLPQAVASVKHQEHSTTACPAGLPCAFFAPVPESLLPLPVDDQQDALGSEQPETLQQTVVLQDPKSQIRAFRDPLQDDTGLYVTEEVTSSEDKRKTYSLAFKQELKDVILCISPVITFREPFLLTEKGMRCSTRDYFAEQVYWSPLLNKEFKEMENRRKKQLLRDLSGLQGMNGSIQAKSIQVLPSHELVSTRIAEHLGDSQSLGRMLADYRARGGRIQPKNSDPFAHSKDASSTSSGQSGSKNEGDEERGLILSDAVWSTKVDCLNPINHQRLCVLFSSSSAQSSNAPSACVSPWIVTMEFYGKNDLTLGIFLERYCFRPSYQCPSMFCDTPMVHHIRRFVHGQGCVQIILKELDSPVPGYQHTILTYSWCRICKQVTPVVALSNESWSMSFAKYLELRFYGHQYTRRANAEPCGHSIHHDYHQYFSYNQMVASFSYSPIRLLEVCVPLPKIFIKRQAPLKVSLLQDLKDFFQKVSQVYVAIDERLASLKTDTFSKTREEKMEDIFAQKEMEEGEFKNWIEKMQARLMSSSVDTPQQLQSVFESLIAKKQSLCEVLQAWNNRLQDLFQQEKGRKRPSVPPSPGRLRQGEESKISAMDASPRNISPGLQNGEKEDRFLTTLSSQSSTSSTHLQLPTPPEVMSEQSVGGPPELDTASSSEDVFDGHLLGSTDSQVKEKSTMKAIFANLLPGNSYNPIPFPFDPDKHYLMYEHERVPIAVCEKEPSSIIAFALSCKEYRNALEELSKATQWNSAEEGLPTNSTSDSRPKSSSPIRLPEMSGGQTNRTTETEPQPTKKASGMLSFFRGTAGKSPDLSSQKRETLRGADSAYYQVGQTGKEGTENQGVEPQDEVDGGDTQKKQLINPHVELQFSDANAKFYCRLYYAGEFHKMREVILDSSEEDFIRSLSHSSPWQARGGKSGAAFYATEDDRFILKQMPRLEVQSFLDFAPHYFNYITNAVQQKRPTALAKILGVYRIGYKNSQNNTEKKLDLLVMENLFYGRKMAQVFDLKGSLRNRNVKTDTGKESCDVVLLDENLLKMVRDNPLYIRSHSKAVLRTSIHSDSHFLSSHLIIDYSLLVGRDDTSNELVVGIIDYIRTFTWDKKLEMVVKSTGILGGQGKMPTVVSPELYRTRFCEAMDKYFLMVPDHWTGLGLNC

Work on Cc1cccc(/C=N/Nc2cc(N3CCOCC3)nc(OCCc3ccccn3)n2)c1 [apilimod] yielded an inhibition at 1 µM (PIKFYVE [1]) of 100%.

For c1ccc(-c2cc(Nc3nc(-c4ccncc4)nc4ccccc34)n[nH]2)cc1 [UNI418, N -(5-phenyl-1 H -pyrazol-3-yl)-2-(4-pyridinyl)-4-quinazolinamine], the pseudotyped virus entry (VSV-G-pseudotyped virus) was “unaffected”, the “number of nonacidic autophagosomes” value [2] was “considerably increased” and the inhibition at 1 µM (PIKFYVE [1]) was 100%. The Kd (PIKFYVE [3]) was 0.78 nM.
